Results taken from article PMC12633397 (bioRxiv, 2025).

Target: T1, esVHPO (Enhygromyxa salina, UniProt A0A0C2CTX7)
T1 sequence (A0A0C2CTX7 1-528): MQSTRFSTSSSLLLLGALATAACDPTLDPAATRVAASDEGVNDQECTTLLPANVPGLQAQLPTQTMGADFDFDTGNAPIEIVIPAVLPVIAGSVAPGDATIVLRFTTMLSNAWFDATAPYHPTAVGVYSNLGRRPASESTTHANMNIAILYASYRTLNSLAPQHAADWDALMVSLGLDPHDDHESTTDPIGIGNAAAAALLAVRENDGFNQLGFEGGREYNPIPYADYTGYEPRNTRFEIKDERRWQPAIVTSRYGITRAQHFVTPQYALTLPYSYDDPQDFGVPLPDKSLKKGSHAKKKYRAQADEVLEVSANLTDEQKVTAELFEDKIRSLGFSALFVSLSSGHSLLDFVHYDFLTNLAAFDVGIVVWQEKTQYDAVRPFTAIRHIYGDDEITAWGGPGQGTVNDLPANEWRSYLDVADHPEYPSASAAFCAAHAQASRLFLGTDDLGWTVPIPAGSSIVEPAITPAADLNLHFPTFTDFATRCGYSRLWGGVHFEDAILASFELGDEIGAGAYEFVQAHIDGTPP
Assay: UPLC-MS of Br-MHQ formation, steady-state kinetics
Format: biochemical
Settings: 1 mM H2O2, 20 mM KBr, 100 μM Na3VO4, 20 mM HEPES-KOH, 10% glycerol, 28 °C; Hill fit, positive cooperativity; labelled compound (deuterated)

In the case of `Cc1cc(=O)c2ccccc2[nH]1` [C3-deuterated MHQ], the K0.5 was “The steady state kinetics for C3-Deuterated-MHQ (D-MHQ) was performed precisely as for undeuterated MHQ”.
